Results as given in patent US11116784B2, “Niacinamide (NAM) in ischemic tissue injury” (Beth Israel Deaconess Medical Center, Inc., priority 2016, dated 2021).
Entries after “also recorded” stand apart in the source; their conditions may differ.

What was measured:
[1] = test system: NNMT in cultured renal tubular cells (IMCD3); conditions: 24 hr exposure to 1-Me-Nam
Description: LC-MS assays were developed for multiplex quantification of Nam, NAD, and β-hydroxybutyrate (β-OHB) from cellular experiments. NAD measurements reflect total NAD^+ plus NADH. Briefly, conditioned medium was extracted with methanol (80% methanol final concentration) spiked with isotopic standards for Nam and β-OHB (CDN Isotopes, Inc.). Precipitated proteins were removed by centrifugation, and supernatants were analyzed directly. For analysis of cell lysates, cells were washed with ice-cold PBS, scraped and lysed on dry ice into methanol containing isotopic standards. After extraction, cell and media supernatants were analyzed by LC-MS/MS using reverse-phase chromatography (NAM and NAD/NADH) or hydrophilic interaction chromatography (β-OHB) coupled to tandem mass spectrometry using an API 5000 triple quadruple mass spectrometer. Analytes were quantified by multiple reaction monitoring using the following m/z transitions: β-OHB 103.1>59, β-OHB IS 105.1>60, NAM 123.3>80.2, NAM IS 127.3>84.2, NAD/NADH 664.2>542.0. Eluting peaks were quantified by area under the curve (AUC).
Mouse intermedullary collecting duct (IMCD3) cells were obtained from ATCC. […] Cells were transfected with siRNA targeting mouse PGC1, HCAR2 or a negative control siRNA (Qiagen) for 24 h. […] Prostaglandin E2 (PGE2) was measured in the conditioned media 24-72 hours after treatment.

[2] = test system: healthy 8-12 wk old male mice; experiment: Renal blood flow by Doppler ultrasound in healthy mice; assay type: in vivo, mouse; conditions: Nam 400 mg/kg intraperitoneal x 1; 4 h after injection vs pre-Nam
Excerpt: The full method is previously described (Tran et al. J Clin Invest 2011; 121, 4003-4014). Briefly, mice were lightly anesthetized, secured to a heat-controlled stage, and continuously monitored for respiration, ECG, and core temperature. A high frequency, high resolution digital imaging platform with linear array technology and equipped with a high-frequency linear array probe MS550D (22-55 MHz) was used throughout the study (Vevo 2100 Visual Sonics). The flow volume was modeled as a circular cylinder of length equal to the average velocity time integral and diameter measured empirically (n=3 cardiac cycles), then multiplied by the heart rate (bpm), then converted from mm^3/min to ml/min. All measurements and analyses were performed by a single blinded operator (EVK).

[3] = test system: mice; experiment: Cisplatin nephrotoxicity model; assay type: in vivo, mouse; conditions: cisplatin 25 mg/kg IP day 0; Nam 400 mg/kg IP on day −1 and day 0
Excerpt: All chemicals were purchased from Sigma-Aldrich unless otherwise noted.

[4] = test system: PGC1α^−/− mice; experiment: Renal ischemia-reperfusion injury (IRI) in PGC1α−/− mice with Nam pretreatment; assay type: in vivo, mouse
Description: (§1) Renal ischemia-reperfusion injury (IRI) was performed on 8-12 week-old males through two small paramedial dorsal incisions by applying a microvascular clamp to each renal pedicle for 20 minutes. Mice were anesthetized with isoflurane for the duration of surgery and warmed to 37° C. using a servo-controlled heating pad. Incisions were closed in two layers and mice were revived with 1 ml warm saline injected intraperitoneally.
(§2) All chemicals were purchased from Sigma-Aldrich unless otherwise noted. Niacinamide was given by intraperitoneal injection of 400 mg/kg/day×4 days in saline, with the final dose an hour prior to IRI surgery. In rescue experiments, the same dose was administered once 18 hours after reperfusion. Indomethacin was given by intraperitoneal injection of 10 mg/kg in 0.1 M sodium carbonate/saline an hour prior to IRI. […]
(§3) All measurements were performed in a blinded fashion by an independent facility. Creatinine was analyzed by LC/MS-MS at the University of Alabama Birmingham O'Brien Core Center for Acute Kidney Injury Research (NIH P30-DK079337). […]
For metabolomics measurements, snap frozen kidneys were cut to equal weights (20 mg/specimen) and mechanically homogenized into 4 volumes of ice-cold water. […] In brief, amino acids, amines, acylcarnitines, nucleotides, and other cationic polar metabolites were measured in 10 μl of kidney homogenate using hydrophilic interaction liquid chromatography coupled with nontargeted, positive ion mode MS analysis on an Exactive Plus Orbitrap MS (Thermo Scientific). Polar and non-polar lipids were measured in 10 μl of kidney homogenate using C8 chromatography and nontargeted, positive ion mode MS analysis on a Q Exactive MS (Thermo Scientific). […] Results were analyzed in MetaboAnalyst (Xia et al., Nucleic Acids Res. 40 (Web Server issue): W127-33 (2012)). […]

[5] = test system: PGC1α KO mice; experiment: Cardiac IRI with pressure volume loops in PGC1α KO mice; assay type: in vivo, mouse; conditions: Nam 400 mg/kg IP, one dose before IRI, two after; 2 weeks after 45 min coronary occlusion
Description: For cardiac IRI surgery, mice were anesthetized, intubated, and placed on a rodent ventilator. After thoracotomy, the left anterior descending artery was identified and ligated with a 7-0 silk suture tied around a specialized 30 gauge catheter. The animal remained under anesthesia and ventilation for 45 minutes of ischemia. Reperfusio was achieved by cutting the suture and re-establishing arterial perfusion. The thoracotomy was then sutured closed and animals recovered with warmed saline injected intraperitoneally.
Pressure volume loops were performed to assess cardiac parameters. Cardiac function was measured in mice using the left ventricle (LV) pressure-volume and echocardiography 2 weeks after cardiac IRI or sham control procedure. After 2% isolfurane inhalant anesthesia, the pressure-volume parameters were measured using a 1.4 French microtip pressure-volume catheter. The catheter was first inserted into the right common carotid artery and then gently advanced into the LV to obtain LV hemodynamic measurements. Data were recorded using a Powerlab system. Beat-by-beat pressure-volume parameters including heart rate, stroke volume, stroke work, and cardiac output were measured and analyzed using Cardiosoft Pro software. […] Two-dimensional guided M-mode images were recorded. […]

[6] = test system: mice; experiment: Renal NAD and β-OHB after exogenous Nam in mice; assay type: in vivo, mouse
Description: All chemicals were purchased from Sigma-Aldrich unless otherwise noted. Niacinamide was given by intraperitoneal injection of 400 mg/kg/day×4 days in saline, with the final dose an hour prior to IRI surgery. In rescue experiments, the same dose was administered once 18 hours after reperfusion. Indomethacin was given by intraperitoneal injection of 10 mg/kg in 0.1 M sodium carbonate/saline an hour prior to IRI. […] In brief, amino acids, amines, acylcarnitines, nucleotides, and other cationic polar metabolites were measured in 10 μl of kidney homogenate using hydrophilic interaction liquid chromatography coupled with nontargeted, positive ion mode MS analysis on an Exactive Plus Orbitrap MS (Thermo Scientific). Polar and non-polar lipids were measured in 10 μl of kidney homogenate using C8 chromatography and nontargeted, positive ion mode MS analysis on a Q Exactive MS (Thermo Scientific). […] Results were analyzed in MetaboAnalyst (Xia et al., Nucleic Acids Res. 40 (Web Server issue): […]-33 (2012)). PGE2 was measured in mouse kidney tissue by ELISA (Cayman Chemical). β-OHB (Cayman Chemical) and total NAD (BioVision) was measured in mouse kidney tissue by colorimetric assays. […]

[7] = test system: mice with established AKI; experiment: Nam rescue of established ischemic AKI (single dose 18 h after reperfusion); assay type: in vivo, mouse; conditions: Nam 400 mg/kg IP x 1, 18 h after onset of reperfusion
Description: as §1, §2, §3

[8] = test system: renal tubular cells (IMCD3); experiment: PGE2 in conditioned media of renal tubular cells; assay type: cell-based, mouse
Description: Mouse intermedullary collecting duct (IMCD3) cells were obtained from ATCC. […] Cells were transfected with siRNA targeting mouse PGC1, HCAR2 or a negative control siRNA (Qiagen) for 24 h. Niacin, mepenzolate bromide, β-hydroxybutyrate, the NAMPT inhibitor FK866 ([…] et al. Cancer research 2003; 63, 7436-7442), and niacinamide were diluted to the indicated concentrations in serum-free cell culture medium. Prostaglandin E2 (PGE2) was measured in the conditioned media 24-72 hours after treatment.

[9] = test system: explanted hearts; experiment: NAD in explanted hearts stored in UW Belzer preservation solution; design: species or system mouse; conditions: 500 μM, 1 mM or 10 mM Nam in ice-cold UW Belzer solution, 3 hours, vs UW Belzer alone
Description: (§4) A, To mimic donor organ harvest, deeply anesthetized mice were flushed intravascularly with ice-cold UW Belzer solution, then placed into ice cold solutions of UW-Belzer with or without 5 μM of P7C3, NAMPT agonist. After 16 hours for the explanted kidneys, organs were analyzed for levels of NAD (pg/μg of protein). B, To mimic donor organ harvest, deeply anesthetized mice were flushed intravascularly with ice-cold UW Belzer solution, then placed into ice cold solutions of UW-Belzer with or without 500 μM, 1 mM or 10 mM Nam. After 3 hours for the explanted hearts, organs were analyzed for levels of NAD (pg/μg of protein). C, NAMPT is the rate-limiting enzyme for the conversion of Nam to NAD via the intermediate NMN (nicotinamide mononucleotide).
(§5) To further expand upon the results from the retrospective cohort of patient study, the conditions of donor organ harvest were mimicked using mice in hopes of improving post-implantation graft performance (FIG. 23). In this experiment, kidney and heart were harvested and Nam or P7C3, a NAMPT agonist, were added to the preservation solution. Upon incubation of kidney with P7C3 in the preservation solution, NAD levels increased as compared to kidney incubated with the UW Belzer solution alone (FIG. 23A). […]

[10] = test system: PGC1α^−/− animals; experiment: Intracardiac lipids after Nam; assay type: in vivo, mouse; conditions: Nam 400 mg/kg IP
[11] = test system: explanted kidneys; experiment: NAD in explanted kidneys stored in UW Belzer preservation solution; design: species or system mouse; conditions: 5 μM P7C3 in ice-cold UW Belzer solution, 16 hours, vs UW Belzer alone
Description: as §4, §5

[12] = test system: iNephPGC1α mice; experiment: Renal IRI in iNephPGC1α mice with inhibition of β-OHB signaling or prostaglandin synthesis; assay type: in vivo, mouse; conditions: 10 mg/kg IP one hour prior to IRI
Description: as §1, §2, §3

C[n+]1cccc(C(N)=O)c1 [1-Me-Nam, 1-methyl-niacinamide]
NAD in IMCD3 cells [1]: dose-dependent induction of NAD

NC(=O)c1cccnc1 [Nam, niacinamide]
renal blood flow [2]: improved
cisplatin-induced AKI (serial serum creatinine) [3]: prevented
renal Nam ([4]; Nam 400 mg/kg IP x 4 d, with and without IRI 24 h before tissue collection, p<0.001): increased
post-ischemic fat accumulation (Oil Red O) ([4]; Nam pretreatment 400 mg/kg IP x 4 d, 24 h after IRI): normalized
post-ischemic AKI (serum creatinine) ([4]; PGC1α−/− mice, Nam 400 mg/kg/day IP x 4 d, last dose 1 h before IRI): completely prevented
contraction (dP/dt max) [5]: improved
relaxation (dP/dt min) [5]: improved
renal NAD ([6]; 4 h after a single IP Nam dose (100-400 mg/kg)): dose-dependently increased; also recorded: can increase renal NAD levels
renal β-OHB accumulation relative to normal circulating concentrations ([6]; Nam 400 mg/kg IP x 4 d, p<0.0001): ten-fold
renal function (serial serum creatinine) in established AKI [7]: significantly improved; also recorded: attenuated; also recorded: rapidly improved
PGE2 secretion ([8]; Nam 1 μM for 24 h): augmented
NAD levels in explanted hearts [9]: increased; also recorded: can boost NAD levels
intracardiac di- and tri-acylglycerols (DAG, TAG) [10]: decline markedly
intracardiac phospholipids [10]: largely unaltered

OC(CNc1ccccc1)Cn1c2ccc(Br)cc2c2cc(Br)ccc21 (stereo not shown) [P7C3]
NAD levels in explanted kidneys [11]: increased; also recorded: can boost NAD levels

COc1ccc2c(c1)c(CC(=O)O)c(C)n2C(=O)c1ccc(Cl)cc1 [indomethacin]
renal protection (serum creatinine 24 h after IRI) [12]: abolished

C[N+]1(C)CCCC(OC(=O)C(O)(c2ccccc2)c2ccccc2)C1 (stereo not shown) [mepenzolate bromide]
renal protection (serum creatinine 24 h after IRI) [12]: abolished

CC(O)CC(=O)O (stereo not drawn) [β-OHB, beta-hydroxybutyrate]
PGE2 secretion in PGC1α-silenced cells ([8]; exogenous β-OHB 5 mM, p<0.0001): still able to induce PGE2 secretion
